Data reported in patent US20250325695A1, “NANOPARTICLE FOR USE IN A PROPHYLAXIS OR IN A TREATMENT OF A CALCIFICATION OF BRUCHS MEMBRANE AND DRUSEN” (Universität Münster, priority 2024, published 2025).

Columns and labels:
Jurkat cells = assay: WST-1 cytotoxicity assay, Jurkat; format: cell-based, human; conditions: 24 h incubation, highest concentration of range 0.5 to 250 μg/ml
Protocol: (§1) hCMEC/D3 cells were cultivated using RPMI 1640 supplemented with 1% (v/v) non-essential amino acids, 1% ([…] (200 mM), 1% (v/v) gentamicin, 1% (v/v) sodium pyruvate (100 mM), 550 nM hydrocortisone, and 20% (v/v) FBS. Jurkat cells were cultivated using RPMI 1640 supplemented with 1% (v/v) of a mixture of penicillin (100 U/ml) and streptomycin (100 μg/ml), 1% ([…] (200 mM), 1% (v/v) gentamicin, and 10% (v/v) FBS. Both cell lines were stored in T75 cell culture flasks in an incubator at a temperature of 37° C. and 100% humidity at 5% CO2 atmosphere. The cells were split twice a week at a ratio of approximately 1:3. After thawing, all experiments were conducted within a maximum of 20 passages. To evaluate the cytotoxicity of the NP formulations a WST-1 assay (Roche Diagnostics, Mannheim, Germany) was conducted on Jurkat and hCMEC/D3 cell lines. Human macrophages and HUVECs were tested applying a XTT assay (Sigma-Aldrich Chemie GmbH, Munich, Germany). After seeding Jurkat and hCMEC/D3 cells in a 96 well plate at a density of 2×10^4 cells/well (hCMEC/D3 cells suspended in 100 μL, Jurkat cells suspended in 50 μL), they were cultured for 48 h with serum containing medium. […] After 30 min, the absorbance was measured again. […] The blank measurement was subtracted and the absorbances were correlated to the controls. […]

hCMEC/D3 cells = assay: WST-1 cytotoxicity assay, hCMEC/D3; format: cell-based, human; conditions: 24 h incubation, highest concentration of range 0.5 to 250 μg/ml, related to pure medium
Protocol: as §1

In the case of `O=C(O)CN(CCN(CC(=O)O)CC(=O)O)CCN(CC(=O)O)CC(=O)O` [DTPA, diethylenetriaminepentaacetic acid], the “cell viability, Jurkat cells” value (Jurkat cells) was 73.0±6.6% and the “cell viability, hCMEC/D3 cells” value (hCMEC/D3 cells) was 78.4±6.9%.
